Measurements from ChEMBL document CHEMBL1121596, “Metabolic beta-hydroxylation and N-oxidation of N'-nitrosonornicotine” (J Med Chem, 1980).

Organism: Rattus norvegicus
Assay: Rate of formation of compound by F-344 rat liver microsomes
Type: ADME

`O=NN1CCC(O)C1c1cccnc1` (stereo not given) and `O=NN1CC(O)CC1c1cccnc1` (stereo not given) cannot be ordered by Rate: under 0.01 nmol/min/mg for the first, under 0.01 nmol/min/mg for the second.

First: O=NN1CCCC1c1ccc[n+]([O-])c1 (stereo not given)
Second: OC1CCC(c2cccnc2)O1 (stereo not given)
The Rate of the first is lower: 0.57 nmol/min/mg for the first, 0.76 nmol/min/mg for the second.

Compound `O=C(CCCO)c1cccnc1` has a Rate of 0.4 nmol/min/mg.
